In patent US10428080B2, “TBK/IKK inhibitor compounds and uses thereof” (Merck Patent GmbH, priority 2015, dated 2019):
Where a name gives a salt, the structure may show the parent alone. Read-outs that look alike come from different tables or passages of the source.

Key:
[1] = system: phosphorylation of the IRF-3 protein in MDA-MB-468 cells; assay: pIRF3 immunocytochemistry cell based assay; conditions: Homo sapiens
Summary of the method: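 After 2 h stimulation with Poly(I:C) (10 ug/ml), following 1 h compound pre-treatment (10-point, 3-fold dilution, top 10 uM), MDA-MB-468 cells were fixed and stained with anti-pIRF3 antibody. pIRF3 fluorescence was normalized to PI staining or cell count on an Acumen cytometer. IC50 curves were derived from this.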

IKKε = target: T1, IKKε (Homo sapiens, UniProt Q14164); assay: IKKe Biochemical Assay; conditions: read-out: IKKε IC50
T1 sequence (Q14164 1-716): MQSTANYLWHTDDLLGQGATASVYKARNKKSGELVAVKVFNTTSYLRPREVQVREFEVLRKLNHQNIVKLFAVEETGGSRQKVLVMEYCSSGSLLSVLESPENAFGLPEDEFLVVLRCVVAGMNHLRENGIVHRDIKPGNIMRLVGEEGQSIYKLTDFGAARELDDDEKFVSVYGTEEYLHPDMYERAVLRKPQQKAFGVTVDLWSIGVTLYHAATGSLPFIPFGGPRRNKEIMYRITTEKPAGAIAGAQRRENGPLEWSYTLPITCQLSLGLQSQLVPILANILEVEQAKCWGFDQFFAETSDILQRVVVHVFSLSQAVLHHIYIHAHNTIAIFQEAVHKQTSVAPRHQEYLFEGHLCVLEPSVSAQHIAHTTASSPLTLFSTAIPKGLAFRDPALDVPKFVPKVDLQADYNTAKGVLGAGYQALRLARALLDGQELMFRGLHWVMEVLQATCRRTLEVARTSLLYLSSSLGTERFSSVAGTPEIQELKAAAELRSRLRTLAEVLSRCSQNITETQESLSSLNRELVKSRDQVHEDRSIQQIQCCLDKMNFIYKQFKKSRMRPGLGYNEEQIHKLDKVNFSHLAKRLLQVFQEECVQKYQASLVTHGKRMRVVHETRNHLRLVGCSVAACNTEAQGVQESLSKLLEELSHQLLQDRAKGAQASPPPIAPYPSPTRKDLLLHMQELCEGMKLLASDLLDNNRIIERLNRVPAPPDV
Summary of the method: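 Activity was measured as mobility-shift separation of phosphorylated from unphosphorylated substrate on a LabChip EZ Reader. Compound was titrated from 30 uM final in 10 points, 1:4 steps, with 1% DMSO, and enzyme plus substrate reacted 90 min at 25° C before stop buffer. Control wells held 10 uM staurosporine.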

TBK1 = target: T2, TBK1 (Homo sapiens, UniProt Q9UHD2); assay: TBK Biochemical Assay; conditions: read-out: TBK1 IC50
T2 sequence (Q9UHD2 1-729): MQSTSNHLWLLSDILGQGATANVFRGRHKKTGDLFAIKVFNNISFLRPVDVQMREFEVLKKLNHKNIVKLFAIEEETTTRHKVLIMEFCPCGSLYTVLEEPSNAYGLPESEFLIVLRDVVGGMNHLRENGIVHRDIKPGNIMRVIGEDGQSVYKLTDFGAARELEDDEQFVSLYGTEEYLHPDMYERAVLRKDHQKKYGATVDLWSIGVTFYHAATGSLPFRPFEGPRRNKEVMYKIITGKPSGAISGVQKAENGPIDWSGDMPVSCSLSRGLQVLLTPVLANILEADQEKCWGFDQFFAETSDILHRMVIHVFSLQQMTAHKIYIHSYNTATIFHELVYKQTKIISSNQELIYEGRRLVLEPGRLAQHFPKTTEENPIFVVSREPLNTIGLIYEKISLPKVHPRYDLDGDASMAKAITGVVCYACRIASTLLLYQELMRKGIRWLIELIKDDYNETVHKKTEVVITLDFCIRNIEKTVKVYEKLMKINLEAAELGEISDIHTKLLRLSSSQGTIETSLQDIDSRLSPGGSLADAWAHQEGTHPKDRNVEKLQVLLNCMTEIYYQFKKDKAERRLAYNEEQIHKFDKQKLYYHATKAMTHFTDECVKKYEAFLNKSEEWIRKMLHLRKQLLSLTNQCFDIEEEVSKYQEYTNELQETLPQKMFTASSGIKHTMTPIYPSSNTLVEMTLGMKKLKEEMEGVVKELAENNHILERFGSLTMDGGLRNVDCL
Summary of the method: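 Caliper LabChip mobility-shift readout of substrate and product after 90 min of TBK1 reaction at 25° C and stop-buffer addition. Compounds tested in 1:4 serial dilution over 10 points from 30 uM final at 1% DMSO; staurosporine 10 uM final defines full inhibition.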

[2] = MDA-MB-468 cells, Poly(I:C) stimulation, read-out: pIRF3 IC50

Structure (SMILES)	IC50 [1, 2] [nM]	IC50 (IKKε) [nM]	IC50 (TBK1) [nM]	IC50 ([1]; MDA-MB-468, read-out: pIRF3 IC50) [nM]
COc1cc(C(=O)NC2C3COCC32)cnc1-c1cc2nccc(-c3ccc(N4CC[C@@H](F)C4)c(C#N)c3)c2o1 (stereo partly drawn) [Compound 466, 6-{7-[3-Cyano-4-((R)-3-fluoro-pyrrolidin-1-yl)-phenyl]-furo[3,2-b]pyridin-2-yl}-5-methoxy-N-(3-oxa-bicyclo[3.1.0]hex-6-yl)-nicotinamide]	100 to 1000	< 100	< 100	–
N#Cc1cc(-c2ccnc3cc(-c4ccc(C(=O)NC5CN6CCC5CC6)cc4)oc23)ccc1OC1CCOCC1 (stereo not drawn) [Compound 145, N-(1-Aza-bicyclo[2.2.2]oct-3-yl)-4-{7-[3-cyano-4-(tetrahydro-pyran-4-yloxy)-phenyl]-furo[3,2-b]pyridin-2-yl}-benzamide]	100 to 1000	< 100	< 100	–
COc1cc(C(=O)N[C@@H]2CCN(C)C2)ccc1-c1cc2nccc(-c3ccc(OC4CCOCC4)c(C#N)c3)c2o1 [Compound 494, 5-{2-[4-(N—((R)-methyl-pyrrolidin-3-yl)-1-carbonyl)-2-methoxy-phenyl]-furo[3,2-b]pyridin-7-yl}-2-(tetrahydro-pyran-4-yloxy)-benzonitrile]	100 to 1000	< 100	< 100	–
COc1cc(C(=O)N2C3COCC2CC(O)C3)cnc1-c1cc2nccc(-c3ccc(OC4CCOCC4)c(C#N)c3)c2o1 (stereo not drawn) [Compound 412, 5-[2-[5-([7-hydroxy-3-oxa-9-azabicyclo[3.3.1]nonan-9-yl]carbonyl)-3-methoxypyridin-2-yl]furo[3,2-b]pyridin-7-yl]-2-(oxan-4-yloxy)benzonitrile]	< 100	< 100	< 100	–
CN(C)C(=O)c1ccc(-c2cc3nccc(-c4ccc(O[C@@H]5CCCOC5)c(C#N)c4)c3o2)cc1 [Compound 156, 4-(7-{3-Cyano-4-[(R)-(tetrahydro-pyran-3-yl)oxy]-phenyl}-furo[3,2-b]pyridin-2-yl)-N,N-dimethyl-benzamide]	1000 to 5000	< 100	< 100	–
COc1cc(C(=O)N2CCCCN2C)cnc1-c1cc2nccc(-c3ccc(OC4CCOCC4)c(C#N)c3)c2o1 [Compound 408, 5-(2-[3-methoxy-5-[(2-methyl-1,2-diazinan-1-yl)carbonyl]pyridin-2-yl]furo[3,2-b]pyridin-7-yl)-2-(oxan-4-yloxy)benzonitrile]	–	< 100	< 100	100 to 1000
COc1cc(C(=O)N(C)C)ccc1-c1cc2nccc(-c3ccc(OC4CCOCC4)c(C#N)n3)c2o1 [Compound 31, 4-{7-[6-Cyano-5-(tetrahydro-pyran-4-yloxy)-pyridin-2-yl]-furo[3,2-b]pyridin-2-yl}-3-methoxy-N,N-dimethyl-benzamide]	< 100	< 100	< 100	–
COc1cc(C(=O)N(C)CCO)ccc1-c1cc2ncc(F)c(-c3ccc(OC4CCOCC4)c(C#N)c3)c2o1 [Compound 297, 4-[7-[3-cyano-4-(oxan-4-yloxy)phenyl]-6-fluorofuro[3,2-b]pyridin-2-yl]-N-(2-hydroxyethyl)-3-methoxy-N-methylbenzamide]	100 to 1000	< 100	< 100	–
COc1cc(-c2cc3nccc(-c4ccc(OC5CCOCC5)c(C#N)c4)c3o2)cnc1C(=O)N(C)C [Compound 393, 5-[7-[3-cyano-4-(oxan-4-yloxy)phenyl]furo[3,2-b]pyridin-2-yl]-3-methoxy-N,N-dimethylpyridine-2-carboxamide]	1000 to 5000	< 100	100 to 1000	–
COc1cc(C(=O)N2CC3CN(C)CC3C2)ccc1-c1cc2nccc(-c3ccc(N4CC[C@@H](F)C4)c(C#N)c3)c2o1 (stereo partly drawn) [Compound 501]	100 to 1000	< 100	< 100	–
COc1cc(C(=O)NC2CC(O)C2)ccc1-c1cc2nccc(-c3ccc(NC4CCOCC4)c(C#N)c3)c2o1 (stereo not drawn) [Compound 122, 4-{7-[3-Cyano-4-(tetrahydro-pyran-4-ylamino)-phenyl]-furo[3,2-b]pyridin-2-yl}-N-(3-hydroxy-cyclobutyl)-3-methoxy-benzamide]	100 to 1000	< 100	< 100	–
N#Cc1cc(-c2ccnc3cc(-c4ccc(C(=O)N5CC[C@H](F)C5)cc4)oc23)ccc1OC1CCOCC1 [Compound 136, 5-{2-[4-((S)-3-Fluoro-pyrrolidine-1-carbonyl)-phenyl]-furo[3,2-b]pyridin-7-yl}-2-(tetrahydro-pyran-4-yloxy)-benzonitrile]	1000 to 5000	< 100	< 100	–
COc1cc(C(=O)N(C)C)ccc1-c1cc2nccc(-c3ccc(O[C@@H]4CCCNC4)c(C#N)c3)c2o1 [Compound 163, 4-{7-[3-Cyano-4-((R)-piperidin-3-yloxy)-phenyl]-furo[3,2-b]pyridin-2-yl}-3-methoxy-N,N-dimethyl-benzamide]	100 to 1000	100 to 1000	100 to 1000	–
COc1cc(C(=O)NC2C3CNCC32)ccc1-c1cc2nccc(-c3ccc(OC4CCOCC4)c(C#N)c3)c2o1 (stereo not drawn) [Compound 84, N-(3-Aza-bicyclo[3.1.0]hex-6-yl)-4-{7-[3-cyano-4-(tetrahydro-pyran-4-yloxy)-phenyl]-furo[3,2-b]pyridin-2-yl}-3-methoxy-benzamide hydrochloride]	100 to 1000	< 100	< 100	–
COc1cc(C(=O)N(C)C)cnc1-c1cc2nccc(-c3ccc(OC4CCOCC4F)c(C#N)c3)c2o1 (stereo not drawn) [Compound 486, 6-{7-[3-Cyano-4-(3-fluoro-tetrahydro-pyran-4-yloxy)-phenyl]-furo[3,2-b]pyridin-2-yl}-5-methoxy-N,N-dimethyl-nicotinamide]	< 100	< 100	< 100	–
COc1cc(C(=O)N(C)C)ncc1-c1cc2nccc(-c3ccc(OC4CCOCC4)c(C#N)c3)c2o1 [Compound 326, 5-[7-[3-cyano-4-(oxan-4-yloxy)phenyl]furo[3,2-b]pyridin-2-yl]-4-methoxy-N,N-dimethylpyridine-2-carboxamide]	< 100	< 100	< 100	–
COc1cc(C(=O)N2CC[C@@H](N(C)C)C2)ncc1-c1cc2nccc(-c3ccc(N4CC[C@@H](F)C4)c(C#N)c3)c2o1 [Compound 459, 5-[2-(6-[[(3R)-3-(dimethylamino)pyrrolidin-1-yl]carbonyl]-4-methoxypyridin-3-yl)furo[3,2-b]pyridin-7-yl]-2-[(3R)-3-fluoropyrrolidin-1-yl]benzonitrile]	< 100	< 100	< 100	–
COc1ccc(-c2ccnc3cc(-c4ccc(C(=O)N(C)C)cc4)oc23)cc1C#N [Compound 167, 4-[7-(3-Cyano-4-methoxy-phenyl)-furo[3,2-b]pyridin-2-yl]-N,N-dimethyl-benzamide]	1000 to 5000	100 to 1000	100 to 1000	–
COc1cc(C(=O)N[C@@H]2[C@@H]3C[C@H]2CN(C)C3)cnc1-c1cc2nccc(-c3ccc(OC4CCOCC4)c(C#N)c3)c2o1 [Compound 398, 6-{7-[3-Cyano-4-(tetrahydro-pyran-4-yloxy)-phenyl]-furo[3,2-b]pyridin-2-yl}-5-methoxy-N-((1R,5S,6S)-3-methyl-3-aza-bicyclo[3.10.1]hept-6-yl)-nicotinamide]	< 100	< 100	< 100	–
